Laboratory results: patent publication US11007179B2, “Opioid receptor modulator dosage formulations” (Allergan Holdings Unlimited Company, priority 2013, dated 2021)

How the values were obtained:
stressed subjects = assay: gastrointestinal motility in stressed subjects, oral administration; type: in vivo
rats = assay: visceral hyperalgesia in rats, oral administration; type: in vivo
[1] = test system: stressed and non-stressed mice; details: cited from earlier work

SMILES | gastrointestinal (GI) motility (stressed subjects) | anti-visceral hyperalgesic effects (rats) | dose range of the effect [1] | gastrointestinal transit and fecal output [1]
COc1ccc(CN(C(=O)C(N)Cc2c(C)cc(C(N)=O)cc2C)C(C)c2nc(-c3ccccc3)c[nH]2)cc1C(=O)O (stereo not shown) [active ingredient] | efficacious in normalizing gastrointestinal (GI) motility | providing anti-visceral hyperalgesic effects |  | 
CN(C)C(=O)C(CCN1CCC(O)(c2ccc(Cl)cc2)CC1)(c1ccccc1)c1ccccc1 [loperamide] |  |  | narrow dose range | completely prevented fecal output
